Measured values as given in ChEMBL document CHEMBL6177982, “Structural Optimization of Pyrazole Compounds as Hsp90 Regulators with Enhanced Antitumor Activity” (J Med Chem, 2025).
Active and inactive are the calls of the source. The rule behind the calls is not given here.

What was measured:
HT-29 = test: Antiproliferative activity against human HT-29 cells assessed as inhibition of cell proliferation incubated for 72 hrs by MTT assay; type: functional, cell-based; details: HT-29, 72 h
[1] = Volume of distribution at steady state in male Sprague-Dawley rat at 1 mg/kg, iv by LC-MS/MS analysis; type: ADME, organism-based; details: in vivo, read-out: Vdss
[2] = Bioavailability in male Sprague-Dawley rat at 10 mg/kg, IG by LC-MS/MS analysis; type: ADME, organism-based; details: in vivo, po
[3] = Clearance in male Sprague-Dawley rat at 10 mg/kg, IG by LC-MS/MS analysis; type: ADME, organism-based; details: in vivo, po
[4] = Metabolic stability in rat liver microsomes assessed as terminal elimination half-life at 1 uM preincubated for 5 mins followed by NADPH addition and measured up to 120 mins by LC-MS/MS analysis; type: ADME, Microsome; details: time < 125 min, read-out: LambdaZ (converted)
HCT-116 [5] = test: Antitumor activity against human HCT-116 cells xenografted in female Balb/c nude mouse assessed as inhibition of tumor growth at 5 to 30 mg/kg, ip administered every two days for 14 days; type: functional, organism-based; details: dose 5-30 mg/kg, time 14.0 day
Homo sapiens = species on record: Homo sapiens; test: Covalent binding affinity to His-tagged C-terminal HSP90 C598A mutant (unknown origin) assessed as two phase melting curve at 100 uM incubated for 4 hrs by SYPRO fluorescent dye based thermal shift assay
[6] = Metabolic stability in human liver microsomes assessed as parent compound remaining at 1 uM preincubated for 5 mins followed by NADPH addition and measured after 30 mins by LC-MS/MS analysis; type: ADME, Microsome; details: time 35 min, read-out: Stability
HCT-116 [7] = test: Inhibition of Myc-tagged HSP90 (unknown origin)/AKT(unknown origin) protein-protein interaction transfected in human HCT-116 cells at 1 to 5 uM incubated for 12 hrs by co-immunoprecipitation analysis; type: cell-based; details: dose 1-5 µM
HCT-116 [8] = test: Inhibition of Myc-tagged HSP90 C598A mutant (unknown origin)/AKT(unknown origin) protein-protein interaction transfected in human HCT-116 cells at 1 to 5 uM incubated for 12 hrs by co-immunoprecipitation analysis; type: cell-based; details: dose 1-5 µM
HCT-116 [9] = test: Antiproliferative activity against CDC37 knockout human HCT-116 cells assessed as inhibition of cell proliferation incubated for 72 hrs by MTT assay; type: functional, cell-based; details: HCT-116, 72 h
[10] = Toxicity in female Balb/c nude mouse xenografted with human HCT-116 cells assessed as effect on spleen weight at 5 to 30 mg/kg, ip administered every two days for 14 days; type: organism-based; details: in vivo, 336 h, dose 5-30 mg/kg, time 14 day
HCT-116 [11] = test: Inhibition of Myc-tagged HSP90 C598A mutant (unknown origin)/HSF1 (unknown origin) protein-protein interaction transfected in human HCT-116 cells at 1 to 5 uM incubated for 12 hrs by co-immunoprecipitation analysis; type: cell-based; details: dose 1-5 µM
MCF7 = test: Antiproliferative activity against human MCF7 cells assessed as inhibition of cell proliferation incubated for 72 hrs by MTT assay; type: functional, cell-based; details: MCF7, 72 h
Mus musculus = test: In vivo induction of CDK4 degradation in female Balb/c nude mouse xenografted with human HCT-116 cells assessed as decrease in CDK4 protein level in tumor at 5 to 30 mg/kg, ip administered every two days for 14 days by Western blot analysis; type: functional, organism-based; details: dose 5-30 mg/kg, time 14.0 day
HCT-116 [12] = test: Antiproliferative activity against human HCT-116 cells assessed as inhibition of cell proliferation incubated for 72 hrs by MTT assay; type: functional, cell-based; details: HCT-116, 72 h
HCT-116 [13] = test: Inhibition of Myc-tagged HSP90 (unknown origin)/CDK4 (unknown origin) protein-protein interaction transfected in human HCT-116 cells at 1 to 5 uM incubated for 12 hrs by co-immunoprecipitation analysis; type: cell-based; details: dose 1-5 µM
HCT-116 [14] = test: Inhibition of Myc-tagged HSP90 (unknown origin)/HSF1 (unknown origin) protein-protein interaction transfected in human HCT-116 cells at 1 to 5 uM incubated for 12 hrs by co-immunoprecipitation analysis; type: cell-based; details: dose 1-5 µM
[15] = Metabolic stability in rat liver microsomes assessed as parent compound remaining at 1 uM preincubated for 5 mins followed by NADPH addition and measured after 30 mins by LC-MS/MS analysis; type: ADME, Microsome; details: time 35 min, read-out: Stability
[16] = Toxicity in female Balb/c nude mouse xenografted with human HCT-116 cells assessed as effect on body weight at 5 to 30 mg/kg, ip administered every two days for 14 days; type: organism-based; details: in vivo, 336 h, dose 5-30 mg/kg, time 14 day
[17] = Apparent volume of distribution in male Sprague-Dawley rat at 1 mg/kg, iv by LC-MS/MS analysis; type: ADME, organism-based; details: in vivo, read-out: Vz
[18] = Stability of compound in simulated intestinal fluid at 100 uM incubated for 12 hrs; type: physicochemical; details: simulated gi fluid
CT26 = test: Antiproliferative activity against mouse CT26 cells assessed as inhibition of cell proliferation incubated for 72 hrs by MTT assay; type: functional, cell-based; details: CT26, 72 h
[19] = AUC (0 to infinity) in male Sprague-Dawley rat at 10 mg/kg, IG by LC-MS/MS analysis; type: ADME, organism-based; details: in vivo, po
[20] = Permeability of compound at pH 7.4 incubated for 4 hrs by PAMPA based UV analysis; type: ADME; details: read-out: permeability
[21] = Toxicity in female Balb/c nude mouse xenografted with human HCT-116 cells assessed as pathological changes in kidney at 5 to 30 mg/kg, ip administered every two days for 14 days by H and E staining based analysis; type: organism-based; details: in vivo, 336 h, dose 5-30 mg/kg, time 14 day
SK-BR-3 = test: Antiproliferative activity against human SK-BR-3 cells assessed as inhibition of cell proliferation incubated for 72 hrs by MTT assay; type: functional, cell-based; details: SK-BR-3, 72 h
[22] = Toxicity in female Balb/c nude mouse xenografted with human HCT-116 cells assessed as effect on lung weight at 5 to 30 mg/kg, ip administered every two days for 14 days; type: organism-based; details: in vivo, 336 h, dose 5-30 mg/kg, time 14 day
[23] = Tmax in male Sprague-Dawley rat at 1 mg/kg, iv by LC-MS/MS analysis; type: ADME, organism-based; details: in vivo
[24] = Cmax in male Sprague-Dawley rat at 1 mg/kg, iv by LC-MS/MS analysis; type: ADME, organism-based; details: in vivo
[25] = target: T1, Heat shock protein HSP 90-beta/Hsp90 co-chaperone Cdc37 (Homo sapiens) (UniProt P08238+Q16543); test: Inhibition of Myc-tagged HSP90 (unknown origin)/CDC37 (unknown origin) protein-protein interaction transfected in human HCT-116 cells incubated for 12 hrs by co-immunoprecipitation analysis; type: cell-based; details: dose 0.5-5 µM
[26] = target: T1, Heat shock protein HSP 90-beta/Hsp90 co-chaperone Cdc37 (Homo sapiens); test: Inhibition of His-tagged HSP90(unknown origin)/GST-tagged CDC37 (unknown origin) protein-protein interaction at 100 uM preincubated with HSP90 for 1 hrs followed by CDC37 addition and measured after 1 hrs by HTRF assay relative to control; type: protein-complex assay
HCT-116 [27] = test: Inhibition of Myc-tagged HSP90 C598A mutant (unknown origin)/CDK4 (unknown origin) protein-protein interaction transfected in human HCT-116 cells at 1 to 5 uM incubated for 12 hrs by co-immunoprecipitation analysis; type: cell-based; details: dose 1-5 µM
[28] = Bioavailability in male Sprague-Dawley rat at 5 mg/kg, ip by LC-MS/MS analysis; type: ADME, organism-based; details: in vivo

In the case of `O=S(=O)(/C=C/c1cn(-c2ccccc2)nc1-c1cccnc1)c1ccccc1`, the IC50 (HT-29) is reported as 2.02 µM, the Vd [1] is reported as 0.52 L/kg and the bioavailability [2] is reported as 67.2%. For the same compound, the CL/F [3] was 18 mL/min/kg, the half-life at 1 µM [4] was 25.2 min and the Activity (HCT-116 [5]) was “Active”. The Activity (Homo sapiens) was “inactive”, the remaining at 0.5 h, 1 µM [6] was 64% and the inhibition (HCT-116 [7]) was “Active”. For the same compound, the inhibition (HCT-116 [8]) was “inactive”, the IC50 (HCT-116 [9]) was > 50 µM and the Activity [10] was “Non-toxic”. For the same compound, the inhibition (HCT-116 [11]) was “inactive”, the IC50 (MCF7) was 2.34 µM and the Activity (Mus musculus) was “Active”. The IC50 (HCT-116 [12]) was 1.08 µM, the inhibition (HCT-116 [13]) was “Active” and the inhibition (HCT-116 [14]) was “inactive”. The remaining at 0.5 h, 1 µM [15] was 58%, the Activity [16] was “Non-toxic” and the Vd [17] was 0.86 L/kg. The Stability [18] was “Stable”, the IC50 (CT26) was 1.97 µM and the AUC(0-inf) [19] was 9810 ng·h/mL. The Papp at 4 h [20] was 42.6 ×10⁻⁶ cm/s, the Activity [21] was “Non-toxic” and the IC50 (SK-BR-3) was 1.99 µM. For the same compound, the Activity [22] was “Non-toxic”, the Tmax [23] was 1.02 min and the Cmax [24] was 3680 ng/mL. The inhibition [25] was “Dose-dependent-effect”, the inhibition [26] was 92.9% and the inhibition (HCT-116 [27]) was “inactive”. The bioavailability [28] was 92.5%.
